Reference: US20100278782A1, “DIFFERENTIATION OF RAT LIVER EPITHELIAL CELLS INTO HEPATOCYTE-LIKE CELLS” (Vrije Universiteit Brussel, priority 2006, published 2010)

How the values were obtained:
primary rat hepatocytes [1] = experiment: Inhibition of DNA synthesis (3H-methylthymidine incorporation) in EGF-stimulated primary rat hepatocytes; format: cell-based; settings: DNA synthesis at day 3 (72 h), EGF 50 ng/ml
Description: Results are expressed as percentage of positive control (untreated cells cultured in the presence of mitogen). Total inhibition of hepatocyte proliferation is considered when DNA synthesis of treated cells equals DNA synthesis level of negative control (untreated cells cultivated in the absence of mitogen). Results shown are the means±SD from 4 or more independent experiments.
Screening of the anti-proliferative activity of the above compounds (effect on DNA synthesis) was performed as in example 10a.
The maximal (100%) inhibition of rat primary hepatocyte proliferation has been achieved with following concentrations:
Dose-dependent inhibition of cell proliferation by Jung-type HDACi after 3 days of incubation. Hepatocytes (0.4×10^5 cells/cm^2) were cultured in duplicate in a mixture of MEM/M199 (3:1, v/v) and stimulated to proliferate with EGF (50 ng/ml) 4 h after plating. Exposure to the indicated concentrations of HDACi started at time of plating and was maintained for 3 consecutive days. ^3H-methylthymidine incorporation was measured at day 3 (72 h) of culture. Cells cultured in the absence of EGF serve as a negative control for hepatocyte proliferation (neg. contr.) whereas cells stimulated with EGF alone serve as a positive control for hepatocyte proliferation (pos. contr.). Results are expressed as the percentage of maximal incorporation observed in hepatocytes cultured in the presence of EGF alone. Values shown are the means±SD of duplicate cultures of 3 experiments.

rat hepatocyte HDAC = experiment: Fluor de Lys HDAC inhibition assay in crude rat hepatocyte lysates; format: biochemical; settings: Fluor de Lys substrate, n = 3 or 4, read-out: Estimated IC50 values for tested compounds
Description: Screening of the HDAC inhibiting potencies of the above compounds was performed in crude rat hepatocyte lysates, prepared from freshly isolated cells, using the Fluor de Lys HDAC inhibition assay as detailed in example 9.
A two-step collagenase perfusion technique was used to isolate hepatocytes from male outbred Sprague-Dawley rats (200-300 g; Charles River Laboratories, Brussels, Belgium), which were kept under controlled environmental conditions (12 h light-dark cycle) and fed a standard diet (Animalabo A 04) with water ad libitum. Procedures for housing of the animals, and for isolation and cultivation of the rat hepatocytes were approved by the local ethical committee of the Vrije Universiteit Brussel (VUB, Brussels, Belgium).
Inhibition of HDAC activity was assessed in crude rat hepatocyte lysates by the Fluor de lys HDAC inhibition protocol as outlined herein:
HDAC Fluorescent Activity Assay/Drug Discovery Kit, Tebu-bio, AK-500.
• HDAC: thaw a rat hepatocyte cell extract (containing 6 mg/ml proteins) in tap water at room temperature, store on ice. • HDAC inhibitor:
Prepare a dilution series in assay buffer.
• Add 500 μl homogenisation buffer to 30×10^6 hepatocytes (pellets stored at −80° C.). • Ultrasonicate on ice 2×30 pulses • Let the homogenate(s) rest on ice during 5 min. • Transfer the homogenate(s) to 1.5 ml eppendorf tube(s) on ice, vortex vigorously. • Centrifugate at 14000 rpm in the microcentrifuge during 5 min at 4° C. • Determine the protein concentration (Bradford protein assay) of the supernatant, discard the pellets. • Dilute the extract(s) to a protein concentration of 6 mg/ml. Divide in aliquots of 500 μl (eppendorf tubes) and store for later use at −80° C.
1. bring 10 μl inhibitor/control solvents/assay buffer per well 2. add 15 μl cell extract to each well (for the blank: 15 μl boiled cell extract) 3. incubate 5 min at room temperature (cover plate with aluminium foil) 4. add 25 μl Fluor de Lys substrate to each well (40 μM solution, […]) 5. cover the plate with aluminium foil and incubate 15 min on orbital shaker 6. after 15 min, add 50 μl freshly prepared, ice-cold developer solution to each well 7. cover the plate with aluminium foil and incubate 15 min on orbital shaker 8. Measure the fluorescence in the plate reader
• Subtract the blank value (boiled extract) (background signal) • Calculate as % of ethanol control, that is set 100% • If the concentrations are spread around the 50% inhibition value, than the IC50 value can be calculated. […] (Note: the concentration should be set out as their logarithmic values)

primary rat hepatocytes [2] = experiment: Location of cell cycle arrest in primary rat hepatocytes from cell cycle marker expression; format: cell-based; settings: 3 days incubation; absence of cyclin D1 and cdk1 protein expression, prior to the restriction point
From the text: Assessed as in example 11a.
The effect of the different 6C-spacer compounds on the expression of key cell cycle proteins was investigated as well in order to identify the location of the cell cycle arrest.
Two cell cycle markers were studied as detailed in example 11a (see FIG. 8 for results): (a) cyclin D1, this protein is typically expressed when hepatocytes were able to pass the restriction point located in the mid-late G1 phase; and (b) cdk1, which is a marker for the S/G2/M phase (DNA synthesis takes place in the S phase).
Hepatocytes (0.4×10^5 cells/cm^2) were cultured in duplicate in a mixture of MEM/M199 (3:1; v/v) and stimulated to proliferate with EGF (50 ng/ml) 4 h after plating. Exposure to the indicated concentrations of HDACi started at time of plating and was maintained for 3 consecutive days: Cells were then harvested and analyzed for cyclin D1 and cdk1 expression levels (20 μg proteins/lane). Total ERK staining serves as a loading control.

CYP1 A1 = experiment: Expression of CYP450 isoforms in rat primary hepatocytes; format: cell-based; settings: 4 days exposure; expression lost in untreated controls
Description: (§1) Measured as in example 11b.
(§2) Furthermore, pro-differentiating effect of AN-6, AN-8 and AN-10 was examined as described in example 11b. Namely, the expression of phase I biotransformation markers, CYP 450 isoforms was examined. […] In comparison, the expression of latter proteins was lost in controls (untreated cells).
(§3) Hepatocytes (0.57×10^5 cells/cm^2) were cultured in Williams' E medium supplemented with insulin (0.5 μg/ml), glucagon (7 ng/ml) and hydrocortisone (25 μg/ml). Exposure to the indicated concentrations of HDACi started at time of plating and was maintained for 4 consecutive days. Cells were harvested at indicated time points and analyzed for CYP2 B1 and CYP1 A1 expression levels (40 μg proteins/lane).

CYP2 B1 = experiment: as above; format: cell-based; settings: 4 days exposure; expression lost in untreated controls
Description: as §1, §2, §3

HNF-1α = experiment: LETF immunofluorescence during hepatic differentiation of RLECs; format: cell-based, rat; settings: TSA added to Sequential 3 differentiation protocol
Description: (§4) A: HNF-3b, B: HNF-4, C: HNF-1a, a: with DAPI counterstain, b: without DAPI counterstain.
(§5) • rinse cells 3× with PBS • fix nuclear and cytoplasmic proteins at room temperature for 10 min with 4% PFA (cold), connexins at −20° C. for 10 min with Ethanol/Aceton (50/50) and cytoskeletal proteins at −20° C. for 10 min with Ethanol. • wash 3×5 min with PBS • proceed with staining or store wells in PBS at 4° C. • check cells under microscope for autofluorescence and attachment • incubate 15 min with 100 mM glycin in PBS (used to saturate reactive groups generated after PFA fixation) • wash 3×5 min with PBS • incubate 15 min with PBST (permeabilization) • rinse 3× with PBS • block 45 min with block buffer at room temperature • incubate overnight at 4° C. with primary Ab diluted in PBS • rinse with PBS • wash 4×15 min with PBS • incubate with fluorescence-labeled secondary Ab 1 h 30 at room temperature (dilute Ab in PBS) • keep dark • wash 4×15 min with PBST • rinse with distilled water • mount with Vectashield with DAPI (use 3 drops per well)
(§6) For this experiment, the protocols of example 5 were used to differentiate RLECs towards the hepatic lineage with the exception of the sequential procedure. Sequential 3 from example 6 was used to differentiate the cells instead of the one stated in example 5. The immunofluorescence protocol-staining on cultured cells was used as stated in example 8.

HNF-4 = experiment: as above; format: cell-based, rat; settings: TSA added to Sequential 3 differentiation protocol
Description: as §4, §5, §6

HNF-3β = experiment: as above; format: cell-based, rat; settings: TSA added to Sequential 3 differentiation protocol
Description: as §4, §5, §6

RLEC = experiment: Morphology of RLEC differentiated in the presence of an HDAC inhibitor; format: cell-based, rat
Description: FIG. 15 illustrates morphology of RLEC differentiated in the presence of an HDAC inhibitor, as explained in example 13.
RLEC at 100% confluence are used for differentiation into hepatocyte-like cells: • after sub-cultivation, detach cells as described above and suspend all cells derived from 1 T75 and 1 T150 in 3 ml and 6 ml of new growth medium (37° C.), respectively. • homogenize the cell suspension by pipetting up and down. • add 420 μl growth medium to a 2 cm^2-well • transfer 80 μl of cell suspension to the middle of a 2 cm^2-well, precoated with 50-100 μg/ml collagen type I • tap to homogenize cell suspension; check cells under microscope • incubate cells at 37° C. in growth medium until cells have reached 100% confluence. • At 100% confluence, remove growth medium and expose cells to basal medium supplemented with liver specific factors, as follows: 1. days 0-1: 10 ng/ml FGF-4 2. days 1-3: 10 ng/ml FGF-4, 20 ng/ml HGF 3. days 3-6: 5 ng/ml FGF-4, 30 ng/ml HGF, 0.5×ITS 4. days 6-9: 30 ng/ml HGF, 0.25×ITS; 0.05 μM dexamethasone 5. days 9-12: 20 ng/ml HGF, 0.05 μM dexamethasone 6. days 12-15: 10 ng/ml HGF; 10 ng/ml OSM, 0.05 μM dexamethasone 7. From day 15 on: 10 ng/ml OSM, 0.05 μM dexamethasone
RLEC are differentiated without initial FGF-4 exposure, according to the following sequence:
1. days 0-3: 20 ng/ml HGF 2. days 3-6: 5 ng/ml FGF-4, 30 ng/ml HGF, 0.5×ITS 3. days 6-9: 30 ng/ml HGF, 0.25×ITS; 0.05 μM dexamethasone 4. days 9-12: 20 ng/ml HGF, 0.05 μM dexamethasone 5. days 12-15: 10 ng/ml HGF; 10 ng/ml OSM, 0.05 μM dexamethasone 6. From day 15 on: 10 ng/ml OSM, 0.05 μM dexamethasone
The results are illustrated in FIG. 15. […] The cells still have the characteristic RLEC shape. […] Optimisation of HDAC inhibitor concentration to reduce cell death is within the reach of a skilled person.

HDAC = settings: literature statement; cited from earlier work
[3] = tested on: freshly isolated rat hepatocytes; settings: incubated with freshly isolated rat hepatocytes, compared with TSA; cited from earlier work

For `CN(C)c1ccc(C(=O)NCCCCC(=O)NO)cc1` [AN-1, 5-(4-dimethylaminobenzoyl)-aminovaleric acid hydroxamid], the “Concentration achieving maximal (100%) inhibition of rat primary hepatocyte proliferation” value (primary rat hepatocytes [1]) was 50 µM and the IC50 (rat hepatocyte HDAC) was 301 ± 28 nM.

`O=C(CCCCCNC(=O)c1ccc(N2CCOCC2)cc1)NO` [AN-16] gave an IC50 (rat hepatocyte HDAC) of 1010 ± 310 nM.

For `O=C(CCCCCNC(=O)c1ccc(Cl)cc1)NO` [AN-7], the IC50 (rat hepatocyte HDAC) was 84 ± 27 nM.

With `O=C(CCCCCNC(=O)c1ccc(N2CCCCC2)cc1)NO` [AN-15] the IC50 (rat hepatocyte HDAC) was 500 ± 108 nM.

For `O=C(CCCCNC(=O)c1ccc(N2CCCCC2)cc1)NO` [AN-13], the IC50 (rat hepatocyte HDAC) was 2250 ± 616 nM.

For `O=C(CCCCCNC(=O)c1cc2ccccc2[nH]1)NO` [AN-10], the Cell cycle arrest (primary rat hepatocytes [2]) was “induced an early G1 cell cycle arrest”, the “Concentration achieving maximal (100%) inhibition of rat primary hepatocyte proliferation” value (primary rat hepatocytes [1]) was 7.5 µM and the “CYP1 A1 expression during the entire culture period” value (CYP1 A1) was “remarkable ability to maintain”. For the same compound, the IC50 (rat hepatocyte HDAC) was 14 ± 4 nM.

For `CN(C)c1ccc(C(=O)NCCCCCC(=O)NO)cc1` [AN-6, 6-(4-dimethylaminobenzoyl)-aminocaproic acid hydroxamid], the Cell cycle arrest (primary rat hepatocytes [2]) was “induced an early G1 cell cycle arrest”, the “Concentration achieving maximal (100%) inhibition of rat primary hepatocyte proliferation” value (primary rat hepatocytes [1]) was 10 µM and the “CYP2 B1 expression during the entire culture period” value (CYP2 B1) was “remarkable ability to maintain”. For the same compound, the IC50 (rat hepatocyte HDAC) was 24 ± 2 nM.

In the case of `CC(/C=C/C(=O)NO)=C\[C@@H](C)C(=O)c1ccc(N(C)C)cc1` [TSA, Trichostatin A], the “HNF-1α expression and localisation” value (HNF-1α) is reported as “induces expression of HNF-1α in nucleus already on D3”, the “HNF-4 expression and activity” value (HNF-4) is reported as “expressed and active from D3 onwards, either with or without addition of TSA” and the “HNF-3β expression and localisation” value (HNF-3β) is reported as “already expressed at D3 of the differentiation process and is located inside the nucleus”. For the same compound, the “Morphology of differentiating RLEC” value (RLEC; 320 nM, D2, example 13 sequence) was “more polygonal shape”, the “Morphology of differentiating RLEC” value (RLEC; 1 μM, D9, example 13 sequence) was “differentiate into binuclear, polygonal to cuboidal shaped cells” and the “Cell death of differentiating RLEC” value (RLEC; 1 μM, example 13 sequence) was “causes some cell death”. For the same compound, the “Morphology of differentiating RLEC” value (RLEC; protocol of example 5 with TSA addition) was “more fibroblast like shape” and the HDAC inhibitory activity (HDAC) was “potent specific inhibitor of Class I and Class II HDAC in vitro and in vivo”.

In the case of `CN(C)c1ccc(C(=O)NCCCCC(=O)NO)cc1`, the Metabolic stability [3] is listed as “metabolically more stable than TSA” and the HDAC inhibitory activity (HDAC) is listed as “potent HDAC inhibitor”.

For `O=C(CCCCNC(=O)c1ccc(N2CCOCC2)cc1)NO` [AN-14], the IC50 (rat hepatocyte HDAC) was 4490 ± 1820 nM.

In the case of `O=C(CCCCCNC(=O)c1ccccc1)NO` [AN-5], the Cell cycle arrest (primary rat hepatocytes [2]) is reported as “able to induce a similar early G1 cell cycle arrest” and the “Concentration achieving maximal (100%) inhibition of rat primary hepatocyte proliferation” value (primary rat hepatocytes [1]) is reported as 50 µM.

With `O=C(CCCCNC(=O)c1cc2ccccc2[nH]1)NO` [AN-9] the IC50 (rat hepatocyte HDAC) was 313 ± 50 nM.

For `O=C(CCCCCNC(=O)c1ccc(N2CCCC2)cc1)NO` [AN-8], the Cell cycle arrest (primary rat hepatocytes [2]) was “induced an early G1 cell cycle arrest”, the “Concentration achieving maximal (100%) inhibition of rat primary hepatocyte proliferation” value (primary rat hepatocytes [1]) was 7.5 µM and the IC50 (rat hepatocyte HDAC) was 55 ± 19 nM.
